Patent publication US9969964B2, “Disease-on-a-chip” (Purdue Research Foundation, priority 2013, dated 2018)

Tested on: T4-2 tumor nodules
Assay: Apoptosis (TUNEL assay combined with DAPI scoring of pyknotic and karyorrhectic nuclei) of T4-2 tumor nodules treated with chemotherapeutic drugs
Type: cell-based
Conditions: for sensitivity of tumor nodules to drug (apoptosis): T4-2 nodules cocultured with S1 non-neoplastic breast epithelium on flat surfaces compared to monocultures of tumor nodules, FIG. 21 and 22; for sensitivity of cancer cells to drug (apoptosis): T4-2 nodules cocultured with S1 within semicircular hemichannels versus on flat surfaces
Description: The findings described above prompted a test of the sensitivity of T4-2 tumor nodules to the chemotherapeutic drugs bleomycin (BLM, a radiomimetic agent used in the laboratory to study cellular responses to treatments that compromise genome integrity) and doxorubicin (DOX, an anthracycline used for the treatment of breast cancer). In this study, apoptosis was utilized as an endpoint to evaluate drug responses and was quantified using the TUNEL assay combined with visual scoring for pyknotic and karyorrhectic nuclei via DAPI staining (i.e. nuclear condensation and fragmentation, respectively). Three types of T4-2 nodules were compared: monocultures, cocultures with S1 luminal epithelium on the flat surface of the chip, and cocultures with S1 epithelium in the semicircular hemichannels.
This difference is intriguing and could not be explained by the proliferation status within nodules on flat surfaces and in hemichannels (27.5%±1.8% and 24.2%±2.5% Ki67-positive cells, respectively; P=0.292, unpaired t-test, n>10 nodule sections corresponding to >700 nuclei). […] It is possible that the microenvironment or the geometry in the hemichannels promotes modifications in the nuclear organization of tumor cells, which may influence cellular responses to cytotoxic drugs. This view is supported by the measured differences in nuclear circularity reported above, and is in agreement with early recommendations that nuclear morphometric descriptors, including roundness, should be investigated as possible predictors of response to therapy. The disease-on-a-chip system used for coculture with cancer cells provides a system with potential for improved understanding of cancer development and drug assessment in tissue context.

COc1cccc2c1C(=O)c1c(O)c3c(c(O)c1C2=O)C[C@@](O)(C(=O)CO)C[C@@H]3O[C@H]1C[C@H](N)[C@H](O)[C@H](C)O1 [DOX, doxorubicin]
sensitivity of tumor nodules to drug (apoptosis): increased sensitivity
sensitivity of cancer cells to drug (apoptosis): significantly less

bleomycin [BLM]
sensitivity of tumor nodules to drug (apoptosis): increased sensitivity
sensitivity of cancer cells to drug (apoptosis): significantly less
toxicity to T4-2 nodules (drug concentration chosen to ease detection of increased sensitivity to genotoxic stress, should minimally affect cell survival): low toxicity
